According to patent US10196363B2, “Dihydropyrimidin-2-one compounds and medical use thereof” (JAPAN TOBACCO INC., priority 2014, dated 2019):
Where two headings read alike, the source gives them in different places.

Legend:
mouse RORγ = molecular target: T1, mouse RORγ (Mus musculus, UniProt P51450); assay: In vitro assay of inhibitory effect against RORγ transcriptional activity (GAL4-mRORγ LBD luciferase reporter gene assay in CHO cells); assay type: cell-based
T1 construct: mouse RORγ, from Ile251 to Lys516; expressed in transfected cells; host or cells: CHO cells (Chinese hamster ovary), transient co-transfection with pG5-Luc
T1 sequence (P51450 251-516): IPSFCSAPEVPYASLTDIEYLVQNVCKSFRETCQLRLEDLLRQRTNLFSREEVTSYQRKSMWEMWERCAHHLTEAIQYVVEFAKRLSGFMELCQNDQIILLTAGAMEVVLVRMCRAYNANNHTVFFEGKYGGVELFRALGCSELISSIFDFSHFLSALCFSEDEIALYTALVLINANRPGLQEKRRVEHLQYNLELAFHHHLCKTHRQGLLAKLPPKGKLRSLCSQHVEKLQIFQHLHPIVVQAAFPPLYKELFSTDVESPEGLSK
Procedure: (§1) In Vitro Assay of Inhibitory Effect Against RORγ Transcriptional Activity
(§2) Inhibitory effect of a test article on transcriptional activity of RORγ was measured by means of the following reporter gene assay.
(§3) cDNA encoding human and mouse RORγ ligand binding domain (LBD) were obtained based on the sequences of human RORγ (Genebank registered number NM_005060.3) and mouse RORγ (Genebank registered number NM_011281.2) (LBD sequence: human RORγ, from Ser253 to Lys518; mouse RORγ, from Ile251 to Lys516).
(§4) The LBD cDNA of human or mouse RORγ was inserted into pFA-CMV vector (Strategene), which expresses GAL4-DNA binding domain fusion protein. The resulting plasmids are hereinafter referred to as GAL4-hRORγ plasmid and GAL4-mRORγ plasmid, respectively.
(§5) GAL4-hRORγ plasmid or GAL4-mRORγ plasmid was transiently co-transfected into Chinese hamster ovary cells (CHO cells) with pG5-Luc (Promega), a reporter plasmid expressing firefly luciferase depending on GAL4.
(§6) TransIT (Registered trademark) CHO transfection reagent (Mirus) was used to co-transfect GAL4-hRORγ plasmid or GAL4-mRORγ plasmid into CHO cells with pG5-Luc plasmid. One day before the assay, CHO cells were suspended in HAM F-12 Nutrient medium containing 10 v/v % fetal bovine serum and seeded at 6×10^6 cells per 175 cm^2 cell culture flask. Fifty four micro litters of TransIT (Registered trademark) CHO reagent was added into a 15 ml tube containing 1.16 mL of HAM F-12 Nutrient medium without fetal bovine serum, and mixed and incubated at room temperature for 10 min. Thirty six micro litters of plasmid solution containing the GAL4-hRORγ plasmid (400 ng), pG5-Luc plasmid (9000 ng) and pcDNA3 plasmid (8600 ng) were added into the tube and mixed gently. In case of mouse assay, a plasmid solution containing the GAL4-mRORγ plasmid (250 ng), pG5-Luc plasmid (9000 ng) and pcDNA3 plasmid (8750 ng) was added, instead. The mixture was incubated at room temperature for 10 min. Nine micro litters of CHO Mojo Reagent were then added into each tube and mixed gently. The mixture was incubated at room temperature for 10 min. The resultant transfection reagent was applied to the cell culture. After incubation at 37° C., 5% CO2 for 4 hours, the plasmid-transfected CHO cells were harvested with a trypsin treatment. The collected cells were resuspended in HAM F-12 Nutrient medium supplemented with 10 v/v % fetal bovine serum and plated into a 384-well-white plate at 8,000 cells/50 μL/well. The plate was incubated at room temperature for 1 hour and then further incubated at 37° C., 5% CO2 for 3 hours. The test articles were dissolved in dimethylsulfoxide (DMSO) to obtain a concentration of 10 mM. The resulting solution was diluted with a medium just before use and added to the cells in the plate to prepare 8 different concentrations of the test article. The final concentration of DMSO was 0.2 v/v %. After the addition of the test articles, the cells were incubated at 37° C., 5% CO2 for 2 days.
(§7) RORγ transcriptional activity was detected as the intracellular luciferase activity using SteadyLite HTS Reporter Gene Assay System (Perkin Elmer). StedyLite Reagent was diluted five-fold into a solution containing Extension reagent (10 mM Tricine, 0.2% w/v BSA, 0.02% v/v Tween-20) to obtain the luciferase substrate solution. After the measurement of the cell viability using Resazurin, the culture media in the plate were removed, and then the luciferase substrate solution was added into each well. After the incubation at room temperature for 10 minutes, luminescence of each well was measured by a microplate reader. The luciferase activity derived from the luminescence count in the vehicle-control well treated with 0.2% DMSO alone was defined as 100%, and the luciferase activity in the test article was calculated as a percentage (%-of-control) based on the value of the vehicle-control. EC50 value of test article was calculated by curve fitting with GraphPad Prism. […]

human RORγ = molecular target: T2, human RORγ (Homo sapiens, UniProt P51449); assay: In vitro assay of inhibitory effect against RORγ transcriptional activity (GAL4-hRORγ LBD luciferase reporter gene assay in CHO cells); assay type: cell-based
T2 construct: human RORγ, from Ser253 to Lys518; expressed in transfected cells; host or cells: CHO cells (Chinese hamster ovary), transient co-transfection with pG5-Luc
T2 sequence (P51449 253-518): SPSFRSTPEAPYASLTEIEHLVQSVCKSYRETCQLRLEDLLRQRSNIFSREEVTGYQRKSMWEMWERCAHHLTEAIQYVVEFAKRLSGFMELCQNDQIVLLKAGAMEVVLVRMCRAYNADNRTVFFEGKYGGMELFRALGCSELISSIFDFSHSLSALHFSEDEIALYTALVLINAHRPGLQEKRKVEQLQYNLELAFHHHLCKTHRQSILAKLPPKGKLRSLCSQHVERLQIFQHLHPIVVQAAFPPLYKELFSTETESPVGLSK
Procedure: as §1, §2, §3, §4, §5, §6, §7

[1] = GAL4-mRORγ LBD luciferase reporter, CHO cells, read-out: LUC EC50 mRORγ
[2] = GAL4-hRORγ LBD luciferase reporter, CHO cells, read-out: LUC EC50 hRORγ
[3] = GAL4-mRORγ LBD / pG5-Luc in CHO cells, 2 days incubation
[4] = GAL4-hRORγ LBD / pG5-Luc in CHO cells, 2 days incubation

EC50 (mouse RORγ; [1])	EC50 (human RORγ; [2])	EC50 (mouse RORγ; [3])	EC50 (human RORγ; [4])	Structure (SMILES)
17 nM	9 nM			CC(C)C1=CN(c2ccc(C(=O)O)cc2)C(=O)N[C@@]1(C)c1ccc(CCC(C)(C)C(F)(F)F)c(Cl)c1 [Example 196]
		15 nM	10 nM	CC(C)(C)CCc1ccc([C@]2(C)NC(=O)N(CCCC(=O)O)C=C2C2(C)CC2)cc1Cl [Example 52]
		16 nM	17 nM	CC(C)C1=CN([C@H]2C[C@@H](C(=O)O)C2)C(=O)N[C@@]1(C)c1ccc(CCC(C)(C)C)c(Cl)c1 [Example 46]
		275 nM	172 nM	CC(C)C1=CN([C@H]2CC(=O)N(CC(=O)O)C2)C(=O)N[C@@]1(C)c1ccc(CCC(C)(C)C)c(Cl)c1 [Example 162]
29 nM	34 nM			C[C@@]1(c2ccc(OCCC3CCC3)c(Cl)c2)NC(=O)N(C23CC(C(=O)O)(C2)C3)C=C1C1CC(F)(F)C1 [Example 357]
		43 nM	40 nM	CC(C)C1=CN(CCc2ccccc2C(=O)O)C(=O)N[C@@]1(C)c1ccc(CCC(C)(C)C)c(Cl)c1 [Example 83]
		502 nM	746 nM	CCCCc1ccc(C2(C)NC(=O)N(CCCC(=O)O)C=C2C(C)C)cc1 (racemic) [Example 84]
73 nM	89 nM			C=C(C)C1=CN(CCC(=O)O)C(=O)N[C@@]1(C)c1ccc(CCC(C)(C)C)c(Cl)c1 [Example 292]
		255 nM	497 nM	CC(C)OCc1ccc([C@]2(C)NC(=O)N(CCC(=O)O)C=C2C(C)C)cc1Cl [Example 157]
		12 nM	12 nM	CC(C)C1=CN(CCCC(=O)O)C(=O)N[C@@]1(C)c1ccc(CCC(C)(C)C)c(Cl)c1 [Example 15]
		18 nM	13 nM	CC(C)N1C=C(C(C)(C)CCC(=O)O)C(C)(c2ccc(CCC(C)(C)C)c(Cl)c2)NC1=O (single isomer, unassigned) [Example 172]
22 nM	22 nM			CC(C)C1=CN([C@H]2CC[C@H](CC(=O)O)CC2)C(=O)N[C@@]1(C)c1ccc(CCC(C)(C)C)c(Cl)c1 [Example 262]
19 nM	35 nM			CC(C)C1=CN(CCC(=O)O)C(=O)N[C@@]1(C)c1ccc(C2CCC(F)(F)CC2)c(Cl)c1 [Example 328]
		16 nM	25 nM	CC(C)CCc1ccc(C2(C)NC(=O)N(CCCC(=O)O)C=C2C(C)C)cc1Cl (racemic) [Example 27]
33 nM	30 nM			CC(C)C1=CN(CCC(=O)O)C(=O)N[C@@]1(C)c1ccc(C=C2CCCCC2)c(Cl)c1 [Example 267]
1210 nM	542 nM			COCCN1C=C(c2cncc(C(=O)O)c2)[C@](C)(c2ccc(CCC(C)(C)C)c(Cl)c2)NC1=O [Example 275]
